The values below come from article PMC7993833, “EDP-938, a novel nucleoprotein inhibitor of respiratory syncytial virus, demonstrates potent antiviral activities in vitro and in a non-human primate model” (PLoS Pathogens, 2021).

Entries after “also recorded” stand apart in the source; their conditions may differ. Read-outs that look alike come from different tables or passages of the source.

For orientation: EC50 means the concentration needed to bring the measured effect to its halfway point.

Series [1] has as its system RSV. Also noted: method as in PMID 19707346. As to conditions: premature infants; monthly injection; cited from earlier work.
The subject of series [2] is GS-5806- and AZ-27-resistant RSV. Put plainly: Activity against GS-5806- and AZ-27-selected resistant viruses. As to conditions: own resistant virus. Format: cell-based, respiratory syncytial virus.
Series [3] has as its system RSV. Put plainly: Single-round synchronized infection time-of-addition, RT-qPCR endpoint. Format: cell-based, respiratory syncytial virus. Conditions: HEp-2; MOI 3; cold-synchronized; 2x or 20x EC50; added 0-8 hpi; RT-qPCR at 24 hpi. The procedure: In order to help determine which step of the viral life cycle EDP-938 blocks multiple in vitro time-of-addition studies were performed. In the first study, EDP-938 was administered to cells infected with RSV-A Long at a MOI of 0.1 at 2 hours pre-infection (-2) or 2, 6, or 24 hours post-infection (hpi), and viral CPE evaluated 5 days later. […] A second time-of-addition study explored the ability of EDP-938 to protect not just a population experiencing a spreading infection, but individual cells already infected with RSV. Using a MOI of 3, which infects approximately 95% of all cells, virus was cold-adsorbed to the cells for 1 hour to synchronize infection before transfer to 37°C to induce fusion (marking the 0 hpi time point). Compound was added at times indicated and a 24 hpi RT-qPCR endpoint was employed to constrain viral replication cycle to a single complete cycle.
For single round infection synchronized infection 25,000 HEp-2 cpw seeded 1-day pre-infection. Plates brought to 4°C, viral infection at 3 MOI calculated for 30,000 cpw incubated at 4°C 1hr. Compound added to 0h plate and plates moved to 37°C. Compound added at 2h, 4h, 6h, and 8h post-incubation (when plates moved to 37°C) to appropriate plates. 24 hpi viral copies measured with RT-qPCR as described above.
A general note: In qPCR the cycle at which signal appears reflects the starting amount.

Series [4] relates to recombinant RSV A2-line19F, N protein mutants. Put plainly: microbe, parasite or virus in culture. Conditions: human respiratory syncytial virus.
The subject of series [5] is RSV-B VR-955 EDP-938 resistant populations. Put plainly: Susceptibility of EDP-938 resistant RSV-B VR-955 populations. Format: cell-based, respiratory syncytial virus.
Series [6] concerns recombinant RSV A2-line19F, N protein mutants.
A short description of series [7]: Plasma drug exposure in African Green monkey study. Format: in vivo, African Green monkeys (Chlorocebus). As to conditions: both sexes, in vivo, 100 mg/kg BID oral, read-out: mean plasma Ctrough. The source says:
The African green monkey model was selected for EDP-938 in vivo studies for its higher level of viral replication versus cotton rats and BALB/c mice. […] In this previous trial, patients who achieved RSV-604 levels in excess of the EC90 experienced a 2.31 log reduction in viral load. […] The lack of antiviral activity observed with RSV-604 could be a function of relatively poor potency compared to EDP-938 (Fig 1) and/or insufficient tissue exposure. While in this study the animals were not sacrificed and thus the drug level in the lung could not be determined, plasma samples were taken at 12h after the last dose (Ctrough) to confirm drug exposure. […] It is reasonable to project that given the same dose or exposure EDP-938 should perform better than RSV-604 in RSV infected patients as well.
A study of EDP-938 and RSV-604 in the African Green monkey (AGM) animal model was performed by BIOQUAL, Inc (Rockville, Maryland). Methods were similar to those run in a study by Ispas et al.. Six (6) male and 6 female AGMs (Chlorocebus) of 4–5 kg were purchased from PrimGen (Hines, Illinois). Each animal was challenged with 2 x 10^5 PFU of RSV A2 viral inoculum (Virapur, San Diego, CA). Four animals (2 per sex) in each group were treated with EDP-938, RSV-604, or vehicle control (0.5% w/v methylcellulose). […]

A further series concerns RSV replicon. The arrangement: method as in PMID 25451060. As to conditions: compared to AZ-27; cited from earlier work.
The subject of a further series is RSV A2. Put plainly: RSV-infected African Green monkey model, viral load. Conditions: 100 mg/kg BID oral gavage; BAL. It counts as in vivo, African Green monkeys (Chlorocebus). As for the experimental part:
African Green monkeys (AGMs) are permissive for human RSV infection and support a relatively higher level of viral replication compared to cotton rats and BALB/c mice. It has been previously validated as a non-human primate model for assessing in vivo efficacy of potential RSV vaccines and antiviral drugs. To evaluate the activity of EDP-938 in the AGM model, 4 animals each were treated with 100 mg/kg BID with EDP-938, RSV-604, or vehicle control via oral gavage starting 24 hours prior to RSV challenge and continuing for an additional 5 days. Samples were collected through bronchoalveolar lavage (BAL) and nasopharyngeal (NP) swab at various time points to determine viral load. […] Viral load in the NP swab samples was also determined.
A study of EDP-938 and RSV-604 in the African Green monkey (AGM) animal model was performed by BIOQUAL, Inc (Rockville, Maryland). Methods were similar to those run in a study by Ispas et al.. Six (6) male and 6 female AGMs (Chlorocebus) of 4–5 kg were purchased from PrimGen (Hines, Illinois). Each animal was challenged with 2 x 10^5 PFU of RSV A2 viral inoculum (Virapur, San Diego, CA). Four animals (2 per sex) in each group were treated with EDP-938, RSV-604, or vehicle control (0.5% w/v methylcellulose). The animals were dosed via oral gavage twice daily (every 12 hours), starting 24 hours prior to RSV challenge, and then continuing for an additional 5 days (6 total days of dose administration). Bronchoalveolar lavage (BAL) samples and nasopharyngeal (NP) swabs were collected for viral load determination.

Series [8] relates to RSV. Also noted: method as in PMID 31915807. Conditions: patients who achieved RSV-604 levels in excess of the EC90; cited from earlier work.
Series [9] concerns RSV-A Long. Put plainly: CPE assay (ATPlite), RSV-A Long in HEp-2 cells. As to conditions: human respiratory syncytial virus. Format: cell-based.
For series [10], the system named is RSV-A Long. Put plainly: RT-qPCR viral load assay, RSV-A Long in HEp-2 cells. Format: cell-based. As to conditions: human respiratory syncytial virus.
Where [11] appears, read: HEp-2, recombinant RSV Wild-type (WT), HEp2.

For “palivizumab: monthly injectable monoclonal antibody against RSV”, in the series on RSV [1], the “relative reduction in RSV-associated hospitalizations” value is “approximately 55%”.
For `O=C(NC1CC1)c1cc2c(s1)-c1ccccc1N(C(=O)c1ccc(NC(=O)c3cccnc3N3CCC4(CC3)COC4)cc1)CC2` [AZ-27], the “activity against the virus selected for resistance with the same compound” value in series [2] is reported as “lost all ability to inhibit their resistant viruses”.
As for `Cc1cn2nc([C@@H]3CCCCN3C(=O)c3cc(Cl)ccc3NS(C)(=O)=O)cc2nc1N1CC[C@H](N)C1` [GS-5806], in the series with RSV [3], the “inhibition of viral RNA production by time of addition” value was “reduced when added at 0 hpi and completely lost when added at 8 hpi”. The concentration for a half-maximal effect (EC50) in series [4] (HEp-2, recombinant RSV N K107N) was 0.09 ± 0.07 nM; in series [4] (HEp-2, recombinant RSV N K136R), 0.54 ± 0.34 nM; in series [4] (HEp-2, recombinant RSV N L139I) it was 0.17 ± 0.15 nM; in series [4] (HEp-2, recombinant RSV N M109I), 0.11 ± 0.09 nM; in [4] (HEp-2, recombinant RSV N M109K) it was 0.06 ± 0.05 nM; in [4] (HEp-2, recombinant RSV N M109T), 0.21 nM. Also, the concentration for a half-maximal effect (EC50) came out at 0.14 ± 0.2 nM in series [4] (HEp-2, recombinant RSV N N105D); 0.23 ± 0.3 nM in series [4] (HEp-2, recombinant RSV N S134T); 0.13 nM in series [4] (HEp-2, recombinant RSV N V90A); 0.13 ± 0.12 nM in series [4] (setting [11]). For the same compound, the “EC50 Fold Change vs. WT” value amounted to 0.2 fold in series [5] (RSV-B VR-955 Population 1, N: M109K, L139Q (dual WT/mutant population)); 0.2 fold in [5] (RSV-B VR-955 Population 2, N: M109T); 1 fold in series [5] (RSV-B VR-955 Wild-Type); 0.7 fold in series [6] (recombinant RSV N K107N); 4.2 fold in series [6] (recombinant RSV N K136R); 1.3 fold in series [6] (recombinant RSV N L139I). In addition, the “EC50 Fold Change vs. WT” value stood at 0.8 fold in series [6] (recombinant RSV N M109I); 0.5 fold in series [6] (recombinant RSV N M109K); 1.6 fold in [6] (recombinant RSV N M109T); 1.1 fold in series [6] (recombinant RSV N N105D); 1.8 fold in [6] (recombinant RSV N S134T); 1.0 fold in series [6] (recombinant RSV N V90A). Moreover, in [6] (recombinant RSV Wild-type (WT)), the “EC50 Fold Change vs. WT” value came out at 1.0 fold. Moreover, in series [2], the “activity against the virus selected for resistance with the same compound” value is listed as “lost all ability to inhibit their resistant viruses”.
Regarding `O=C(Nc1ccccc1F)N[C@H]1N=C(c2ccccc2)c2ccccc2NC1=O` [RSV-604], the concentration at 12 h after the last dose in series [7] came to 637 nM. Further, the “effect in a replicon assay” value with RSV replicon is given as “minimal effect”. In addition, the “effect on RSV viral load vs vehicle control” value in the series on RSV A2 is recorded as “did not result in significant RSV viral load reduction; also recorded: unable to reduce viral load in a statistically significant manner”. For the same compound, the 50% effective concentration (EC50) worked out at 1810 nM in series [4] (HEp-2, recombinant RSV N K107N); 4300 nM in series [4] (HEp-2, recombinant RSV N K136R); 9550 nM in series [4] (HEp-2, recombinant RSV N L139I); 514 ± 159 nM in series [4] (HEp-2, recombinant RSV N M109I); 2870 nM in [4] (HEp-2, recombinant RSV N M109K); 1860 nM in series [4] (HEp-2, recombinant RSV N M109T). Further, the half-maximal effective concentration (EC50) is 2700 nM in series [4] (HEp-2, recombinant RSV N N105D); 2480 nM in [4] (HEp-2, recombinant RSV N S134T); 1420 nM in series [4] (HEp-2, recombinant RSV N V90A); 1150 nM in series [4] (setting [11]); 1430 nM in the series with RSV-A Long [9] (HEp-2, 120 h); about 1400 nM in the series with RSV-A Long [9] (HEp-2, read-out: EC50, RSV-A Long-induced CPE). Further, the EC50 with RSV-A Long [10] (HEp-2, 120 h) is 1980 nM; in the series on RSV-A Long [10] (HEp-2, read-out: EC50, inhibition of viral replication), about 2000 nM. For the same compound, the “reduction in viral load” value with RSV [8] is 2.31 log. Moreover, the “EC50 Fold Change vs. WT” value is recorded as 1 fold in [5] (RSV-B VR-955 Wild-Type); 1.6 fold in series [6] (recombinant RSV N K107N); 3.7 fold in [6] (recombinant RSV N K136R); 8.3 fold in series [6] (recombinant RSV N L139I); 0.4 fold in [6] (recombinant RSV N M109I); 2.5 fold in series [6] (recombinant RSV N M109K). Moreover, the “EC50 Fold Change vs. WT” value in series [6] (recombinant RSV N M109T) is 1.6 fold; in series [6] (recombinant RSV N N105D) it was 2.3 fold; in series [6] (recombinant RSV N S134T), 2.1 fold; in series [6] (recombinant RSV N V90A), 1.2 fold; in series [6] (recombinant RSV Wild-type (WT)) it was 1.0 fold.
